Experiment: xn = mol fraction of the nth substance listed
Conditions: 100 kPa

CCCCCCCC[P+](CC)(CC)CC.O=[N+]([O-])c1cn[n-]c1 + COCCOCCOCCOCCOC
viscosity [mPa·s]
Conditions | 278.15 K | 283.15 K | 288.15 K | 293.15 K | 298.15 K | 303.15 K | 308.15 K | 313.15 K | 318.15 K | 323.15 K
x2 = 0 | 1340 | – | – | 398 | 282 | 207 | 155 | 119 | – | 75
x2 = 0.051 | 1010 | 666 | 452 | 317 | 229 | – | 130 | 101 | 80 | 65
x2 = 0.102 | 693 | 471 | – | 234 | 172 | 130 | 101 | 80 | 64 | 52
x2 = 0.199 | 395 | 277 | 199 | 147 | 112 | 87 | – | – | – | –
x2 = 0.3 | 229 | 166 | 123 | 94 | 73 | 58 | – | – | – | –
x2 = 0.404 | 129 | – | 74 | 59 | – | – | – | – | – | –
x2 = 0.503 | – | 60 | – | – | – | – | – | – | – | –

CCCCCC[n+]1ccn(C)c1.O=S(=O)([N-]S(=O)(=O)C(F)(F)F)C(F)(F)F + COCCOCCOCCOCCOC
x2 = 0
Conditions | viscosity [mPa·s]
278.15 K | 204
283.15 K | 151
288.15 K | 115
293.15 K | 89

CCCCCC[n+]1ccn(C)c1C.O=S(=O)([N-]S(=O)(=O)C(F)(F)F)C(F)(F)F + COCCOCCOCCOCCOC
Conditions | viscosity [mPa·s]
278.15 K, x2 = 0 | 485
278.15 K, x2 = 0.102 | 370
278.15 K, x2 = 0.205 | 251
278.15 K, x2 = 0.306 | 161
278.15 K, x2 = 0.399 | 109
278.15 K, x2 = 0.499 | 70
278.15 K, x2 = 0.599 | 48
283.15 K, x2 = 0 | 335
283.15 K, x2 = 0.102 | 258
283.15 K, x2 = 0.205 | 177
283.15 K, x2 = 0.306 | 116
283.15 K, x2 = 0.399 | 81
283.15 K, x2 = 0.499 | 53
288.15 K, x2 = 0 | 236
288.15 K, x2 = 0.102 | 184
288.15 K, x2 = 0.205 | 129
288.15 K, x2 = 0.306 | 86
288.15 K, x2 = 0.399 | 61
293.15 K, x2 = 0 | 172
293.15 K, x2 = 0.205 | 96
298.15 K, x2 = 0.205 | 74
303.15 K, x2 = 0 | 99
303.15 K, x2 = 0.102 | 80
303.15 K, x2 = 0.205 | 58
308.15 K, x2 = 0 | 78
313.15 K, x2 = 0 | 63
313.15 K, x2 = 0.102 | 52

CCCC[P+](CC)(CC)CC.Cc1ncc([N+](=O)[O-])[n-]1 + COCCOCCOCCOCCOC
viscosity [mPa·s]
Conditions | 278.15 K | 283.15 K | 288.15 K | 293.15 K | 298.15 K | 303.15 K | 308.15 K | 313.15 K | 318.15 K | 323.15 K
x2 = 0.048 | – | 975 | 634 | 428 | 299 | 215 | – | 121 | 94 | 74
x2 = 0.102 | 972 | – | 421 | 291 | – | 153 | 116 | – | 71 | 57
x2 = 0.201 | 516 | 350 | 243 | 175 | – | 99 | 77 | 62 | – | –
x2 = 0.299 | 258 | 183 | 134 | 100 | 76 | 60 | – | – | – | –
x2 = 0.401 | 134 | – | 74 | 57 | – | – | – | – | – | –
x2 = 0.501 | 74 | – | – | – | – | – | – | – | – | –

CCCn1cc[n+](C)c1C.O=[N+]([O-])c1cn[n-]c1 + COCCOCCOCCOCCOC
viscosity [mPa·s]
Conditions | 278.15 K | 283.15 K | 288.15 K | 293.15 K | 298.15 K | 303.15 K | 308.15 K | 313.15 K | 318.15 K | 323.15 K
x2 = 0.05 | 5420 | 2660 | 1400 | 798 | 487 | 314 | 213 | 150 | 111 | 84
x2 = 0.1 | 3220 | – | – | 552 | 350 | 234 | 163 | 118 | 90 | 70
x2 = 0.201 | 1300 | – | – | 287 | 194 | 137 | 100 | – | 59 | –
x2 = 0.302 | 546 | 338 | 218 | 149 | 106 | 79 | 61 | – | – | –
x2 = 0.399 | – | 167 | 115 | 83 | – | – | – | – | – | –
x2 = 0.499 | 125 | – | 64 | – | – | – | – | – | – | –
x2 = 0.6 | 65 | – | – | – | – | – | – | – | – | –

From a compilation of properties of binary mixtures (doi:10.1021/acs.jced.6b00596)
